Laboratory results taken from paper PMC7496690, “Structure‐Activity Relationship and Crystallographic Studies on 4‐Hydroxypyrimidine HIF Prolyl Hydroxylase Domain Inhibitors” (Chemmedchem, 2019).
Like-named read-outs stand apart in the source and are kept apart here.

Tests used:
Hep‐3B human cell line = experiment: Cellular HIF-1α stabilization by immunoblotting; type: cell-based; settings: Hep3B, 3 hours, immunoblot
Description: Other factors including cell penetration and metabolism likely impact on cellular activity.
Supplementary Information
Figure S7: Immunoblots of Hep3B cells treated with 100 μM (A) and 20 μM (B) PHD inhibitors for 3 hours. The blots show protein levels of HIF1-α and β-actin at the 3rd hour. Protocols for cell culture and immunoblotting have been previously reported.[2] […]

[1] = target: T1, viral collagen prolyl hydroxylase (vCPH) (Paramecium bursaria Chlorella virus 1, UniProt Q84406); experiment: MALDI-TOF MS vCPH hydroxylation assay; type: biochemical
T1 construct: made in house
Description: (§1) Supplementary Information presence of Fe(II) (50 μM), 2OG (25 μM), L-ascorbic acid (100 μM) and RPS2351-70 (25 μM) in HEPES (50 mM, pH 7.5) at 37 °C for 15 min. Reagent solutions were made as previously reported.[23] Reactions were quenched with formic acid (1 % v/v). Samples were prepared by mixing reaction mixture (1 μL) with α-cyano-4-hydrocinnamic acid (CHCA) solution (water:acetonitrile 1:1) (1 μL). Dose-response was assessed in 8-point triplicates.
(§2) Data were analysed using GraphPad Prism 5.04.

OGFOD1 = target: T2, OGFOD1 (Homo sapiens, UniProt Q8N543); experiment: MALDI-TOF MS OGFOD1 hydroxylation assay; type: biochemical; settings: at 10 μM inhibitor
T2 construct: made in house
T2 sequence (Q8N543 1-542): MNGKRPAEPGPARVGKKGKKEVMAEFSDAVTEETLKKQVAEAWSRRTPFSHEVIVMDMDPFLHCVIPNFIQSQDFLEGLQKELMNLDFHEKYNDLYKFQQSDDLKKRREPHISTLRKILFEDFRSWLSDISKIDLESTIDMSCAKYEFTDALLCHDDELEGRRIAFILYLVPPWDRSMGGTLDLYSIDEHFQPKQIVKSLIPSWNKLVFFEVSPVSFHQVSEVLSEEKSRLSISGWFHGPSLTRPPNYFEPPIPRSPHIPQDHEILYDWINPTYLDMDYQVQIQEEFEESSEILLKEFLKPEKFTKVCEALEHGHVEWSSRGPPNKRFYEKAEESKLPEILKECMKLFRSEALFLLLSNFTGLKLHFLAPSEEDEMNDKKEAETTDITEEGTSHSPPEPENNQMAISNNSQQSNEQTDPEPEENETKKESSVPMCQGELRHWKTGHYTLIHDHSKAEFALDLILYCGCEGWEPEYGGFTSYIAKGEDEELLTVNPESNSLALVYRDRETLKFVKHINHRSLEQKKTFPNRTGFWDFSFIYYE
Description: Supplementary Information […]
acid. […] Assay plates were transferred to a
MALDI-TOF MS OGFOD1 Hydroxylation Assays […]
metal affinity chromatography.
The optimized hydroxylation […]
as §1, with “presence” for “Supplementary Information presence”
as §2

KDM4A [2] = target: T3, KDM4A (Homo sapiens, UniProt O75164); experiment: biochemical
T3 sequence (O75164 1-359 limits assumed): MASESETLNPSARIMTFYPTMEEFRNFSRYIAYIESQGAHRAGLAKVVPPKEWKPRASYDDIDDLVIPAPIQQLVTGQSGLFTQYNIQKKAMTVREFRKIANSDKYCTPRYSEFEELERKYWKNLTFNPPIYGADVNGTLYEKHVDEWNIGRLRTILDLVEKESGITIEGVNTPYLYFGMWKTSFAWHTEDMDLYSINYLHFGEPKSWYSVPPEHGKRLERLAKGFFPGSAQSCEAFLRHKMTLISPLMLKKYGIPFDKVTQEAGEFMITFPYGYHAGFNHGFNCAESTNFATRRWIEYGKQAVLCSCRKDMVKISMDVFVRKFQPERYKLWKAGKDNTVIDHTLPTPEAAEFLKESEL
Description: RapidFire-MS KDM4A hydroxylation assays
(§3) (RF-MS). […] The KDM4A RF-MS assay measures
(§4) depletion of a histone H3-K9 (Me3) peptide substrate and appearance of the dimethyl peptide
(§5) oxoglutarate (2OG, code K3752) were from Sigma Aldrich (Poole, Dorset). The H3K9Me3 peptide
(§6) each day to a concentration of 50 mM in deionized water, ferrous ammonium sulphate was prepared
(§7) freshly each day by dissolving to 400 mM in 10 mM HCl and then dilution to 1 mM in deionized
(§8) water, 2OG was prepared freshly each day by dissolving in 10 mM in deionized water. The
(§9) KDM4A RF-MS assay was performed in 384-well plate format in assay buffer (50 mM MES pH
(§10) 7.0). All reagent dispenses were performed using a multidrop reagent dispenser (Thermo). Dilutions
(§11) of compounds were prepared using an ECHO 550 acoustic dispenser (Labcyte) and dry dispensed
(§12) (250 nL) in duplicate into 384-well polypropylene plates (Greiner Bio-One); DMSO (250 nL) was
(§13) dispensed into columns 12 and 2, 4-pyridinedicarboxylic acid (a known JmjC KDM inhibitor)[21]
(§14) (250 nL of 10 mM) was dispensed into column 24 as a no enzyme control. KDM4A (300 nM) was
(§15) minutes. Reaction was initiated by dispensing of 25 µL of assay buffer containing substrate and co-
(§16) factors (200 µM LAA, 20 µM FAS, 20 µM 2OG and 20 µM H3K9Me3 peptide); reactions were
(§17) allowed to progress for 50 minutes, then stopped by addition of 5 µL of 10% (v/v) aqueous formic
(§18) acid. The final assay concentration of DMSO was 0.5% (v/v). Assay plates were transferred to a
(§19) RapidFire RF365 high throughput sampling robot and samples aspirated under vacuum onto a C4
(§20) SPE cartridge. After an aqueous wash step (0.1% v/v formic acid in water) to remove non-volatile
(§21) buffer components from the C4 SPE, peptide was eluted from the C4 SPE in an organic wash step
(§22) cycle of sample aspiration, loading, wash and elution takes approximately 12 seconds. Peptide
(§23) charge states were monitored in the positive ESI mode with a drying gas temperature of 280°C, a
(§24) drying gas flow rate of 13 L/minute, nebulizer gas pressure of 40 PSI, sheath gas temperature of
(§25) 350°C, sheath gas flow rate of 12 L/min and a nozzle voltage of 1000V. Ion chromatogram data
(§26) was extracted for the substrate and the product methyl marks and peak area data for extracted ion
(§27) chromatograms were integrated using RapidFire Integrator software (Agilent). % conversion to the
(§28) dimethyl peptide product was calculated using the equation:
(§29) % conversion = 100 x dimethyl / (dimethyl + trimethyl peptide)
(§30) IC50 data were determined from non -linear regression plots using GraphPad prism 6.0

PHD2_181‐426 [3] = target: T4, PHD2_181‐426 (Homo sapiens, UniProt Q9GZT9); experiment: biochemical
PHD2_181‐426 [4] = target: T4, PHD2_181‐426; experiment: biochemical; remark: listed apart in the source
FIH = FIH (Homo sapiens, UniProt Q9NWT6); experiment: biochemical
Description: chromatogram data were extracted for the +2 charge state and peak area data integrated using
RapidFire Integrator software (Agilent). The % conversion of the CODD peptide substrate to the +16 hydroxylated peptide was calculated using the equation:
determined from non-linear regression plots using GraphPad prism 6.0.
was normalized to no enzyme control.2
RapidFire-MS FIH hydroxylation assays
in the assay buffer (50 mM Tris-HCl pH 7.8, 50 mM NaCl) was pre - incubated for 15 minutes in
the presence of the inhibitors and the enzyme reaction initiated by addition of 20 μL substrate (200
μM L-ascorbic acid, 20 μM Fe(II) sulfate, 10 μM synthetic ankyrin peptide and 20 μM 2OG).[16]
After 15 minutes the reaction was quenched by addition of 4 μL 10% formic acid and the reaction
transferred to a RapidFire RF360 high throughput sampling robot. Samples were aspirated under
vacuum onto a C4 SPE cartridge. After an aqueous washing step (0.1% (v/v) aqueous formic acid),
to remove non-volatile buffer components from the C4 SPE cartridge , peptide was eluted in an
Ion chromatogram data was extracted for the non -hydroxylated
peptide substrate and the hydroxylated peptide product; the peak area data for extracted ion
chromatograms were integrated using RapidFire Integrator software. % conversion of substrate to
product was calculated in Microsoft excel and IC50 curves generated using Graph pad Prism.

KDM4A [5] = target: T3, KDM4A
Description: RapidFire-MS KDM4A hydroxylation assays
as §3, §4, §5, §6, §7, §8, §9, §10, §11, §12, §13, §14, §15, §16, §17, §18, §19, §20, §21, §22, §23, §24, §25, §26, §27, §28, §29, §30

T1 sequence (Q84406 entry or part of it): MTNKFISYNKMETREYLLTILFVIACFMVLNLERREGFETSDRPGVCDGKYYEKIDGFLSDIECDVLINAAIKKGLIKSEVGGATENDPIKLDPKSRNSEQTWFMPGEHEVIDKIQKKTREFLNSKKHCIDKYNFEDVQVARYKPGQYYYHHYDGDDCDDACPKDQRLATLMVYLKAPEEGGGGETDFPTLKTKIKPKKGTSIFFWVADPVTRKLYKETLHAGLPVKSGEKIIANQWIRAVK
Chain of FIH (Q9NWT6 whole entry): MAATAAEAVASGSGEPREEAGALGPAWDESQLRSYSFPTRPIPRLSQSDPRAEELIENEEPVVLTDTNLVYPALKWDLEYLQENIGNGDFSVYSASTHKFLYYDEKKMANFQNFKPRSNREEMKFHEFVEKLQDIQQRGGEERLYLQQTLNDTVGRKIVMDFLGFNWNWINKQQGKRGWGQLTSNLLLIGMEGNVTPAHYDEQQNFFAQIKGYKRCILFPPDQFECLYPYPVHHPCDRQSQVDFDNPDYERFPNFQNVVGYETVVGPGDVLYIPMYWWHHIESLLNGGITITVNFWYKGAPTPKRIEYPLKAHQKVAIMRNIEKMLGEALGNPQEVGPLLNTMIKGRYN
T4 sequence (Q9GZT9 181-426): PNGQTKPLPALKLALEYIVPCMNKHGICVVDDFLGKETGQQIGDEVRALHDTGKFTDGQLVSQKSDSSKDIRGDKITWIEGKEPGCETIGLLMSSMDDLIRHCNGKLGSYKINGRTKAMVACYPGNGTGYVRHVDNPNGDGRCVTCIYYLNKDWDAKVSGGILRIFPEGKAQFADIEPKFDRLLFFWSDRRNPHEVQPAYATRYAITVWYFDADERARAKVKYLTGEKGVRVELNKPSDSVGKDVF

## O=C(NCc1ccc(Oc2ccccc2)cc1)c1cnc(-n2cccn2)nc1O [compound 8, 4-Hydroxy-N-(4-phenoxybenzyl)-2-(1H-pyrazol-1-yl)pyrimidine-5-carboxamide]
Hep‐3B human cell line; 100 μM
  cellular HIF‐1α stabilization: strongest activity
[1]
  IC50: 2 ± 0.1 µM
OGFOD1
  OGFOD1 activity relative to control: 83±13%
KDM4A [2]
  IC50: > 25 µM

## O=C(NCc1ccccn1)c1cnc(-n2cccn2)nc1O [compound 11, 4-Hydroxy-2-(1H-pyrazol-1-yl)-N-(pyridin-2-ylmethyl)pyrimidine-5-carboxamide]
KDM4A [2]
  IC50: 17 µM

## O=C(NCc1ccc2c(c1)OCO2)c1cnc(-n2cccn2)nc1O [compound 14, N-(Benzo[d][1,3]dioxol-5-ylmethyl)-4-hydroxy-2-(1H-pyrazol-1-yl)pyrimidine-5-carboxamide]
PHD2_181‐426 [3]
  IC50: 0.274 ± 0.034 µM
PHD2_181‐426 [4]
  IC50: 0.261 ± 0.037 µM
KDM4A [2]
  IC50: 23 µM

## O=C(NCc1ccccc1)c1cnc(-n2cccn2)nc1O [compound 10, N-Benzyl-4-Hydroxy-2-(1H-pyrazol-1-yl)pyrimidine-5-carboxamide]
KDM4A [2]
  IC50: > 25 µM

## CCOC(=O)c1cnc(-n2cccn2)nc1O [compound 6, Ethyl 4-hydroxy-2-(1H-pyrazol-1-yl) pyrimidine-5-carboxylate]
[1]
  vCPH inhibition (in words): inactive
PHD2_181‐426 [3]
  IC50: > 25 µM
PHD2_181‐426 [4]
  IC50: > 25 µM
FIH
  IC50: > 25 µM
KDM4A [2]
  IC50: > 25 µM

## Cc1cccnc1CN1CCC2(CC1)C(=O)N(c1ccc(-c3ccccc3)cc1)C(=O)N2c1ncccn1 [compound 18, reference compound]
Hep‐3B human cell line; 20 μM
  cellular HIF‐1α stabilization: manifested HIF‐1α stabilization
Hep‐3B human cell line; 100 μM
  cellular HIF‐1α stabilization: strongest activity
[1]
  IC50: > 100 µM
FIH
  IC50: > 25 µM
KDM4A [5]
  IC50: 4.65 µM

## O=C(NCC1CCCCC1)c1cnc(-n2cccn2)nc1O [compound 12, N-(Cyclohexylmethyl)-4-hydroxy-2-(1H-pyrazol-1-yl)pyrimidine-5-carboxamide]
PHD2_181‐426 [3]
  IC50: > 25 µM
PHD2_181‐426 [4]
  IC50: > 25 µM
FIH
  IC50: > 25 µM
KDM4A [2]
  IC50: > 25 µM

## O=C(NCc1cccc(C(F)(F)F)c1)c1cnc(-n2cccn2)nc1O [compound 13, 4-Hydroxy-2-(1H-pyrazol-1-yl)-N-(3-(trifluoromethyl)benzyl)pyrimidine-5-carboxamide]
OGFOD1
  OGFOD1 activity relative to control: 75±1%
FIH
  IC50: > 25 µM
KDM4A [2]
  IC50: > 25 µM

## Cc1nc(C(=O)NCC(=O)O)c(O)c2ccc(Oc3ccccc3)cc12 [compound 1, Roxadustat, reference compound]
OGFOD1
  OGFOD1 activity relative to control: 100%

## O=C(Nc1ccc(-c2ccccc2)cc1)c1cnc(-n2cccn2)nc1O [compound 15, N-([1,1’-Biphenyl]-4-yl)-4-hydroxy-2-(1H-pyrazol-1-yl)pyrimidine-5-carboxamide]
Hep‐3B human cell line; 20 μM
  cellular HIF‐1α stabilization: manifested HIF‐1α stabilization
Hep‐3B human cell line; 100 μM
  cellular HIF‐1α stabilization: strongest activity
[1]
  IC50: 28.2 ± 1 µM
KDM4A [2]
  IC50: > 25 µM

## O=C(N[C@H](CO)c1ccccc1)c1cnc(-n2cccn2)nc1O [compound 17]
Hep‐3B human cell line; 100 μM
  cellular HIF‐1α stabilization: modest HIF‐1α stabilization
OGFOD1
  OGFOD1 activity relative to control: 70±3%
KDM4A [2]
  IC50: 21 µM

## O=C(N[C@@H](CO)c1ccccc1)c1cnc(-n2cccn2)nc1O [compound 16]
Hep‐3B human cell line; 100 μM
  cellular HIF‐1α stabilization: inactive
[1]
  IC50: 1.1 ± 0.1 µM
OGFOD1
  OGFOD1 activity relative to control: 41±5%
KDM4A [2]
  IC50: > 25 µM

## O=C(NCc1ccc(-c2ccccc2)cc1)c1cnc(-n2cccn2)nc1O [compound 9, N-([1,1’-Biphenyl]-4-ylmethyl)-4-hydroxy-2-(1H-pyrazol-1-yl)pyrimidine-5-carboxamide]
FIH
  IC50: > 25 µM
KDM4A [2]
  IC50: 20 µM
